Experiment [1] concerns the target T1, glutathione-S-transferase (GST) tagged LXRbeta LBD (ligand binding domain) (Homo sapiens, UniProt P55055).
T1 construct: purchased Invitrogen pv4658.pps
T1 sequence (P55055 222-460 limits assumed): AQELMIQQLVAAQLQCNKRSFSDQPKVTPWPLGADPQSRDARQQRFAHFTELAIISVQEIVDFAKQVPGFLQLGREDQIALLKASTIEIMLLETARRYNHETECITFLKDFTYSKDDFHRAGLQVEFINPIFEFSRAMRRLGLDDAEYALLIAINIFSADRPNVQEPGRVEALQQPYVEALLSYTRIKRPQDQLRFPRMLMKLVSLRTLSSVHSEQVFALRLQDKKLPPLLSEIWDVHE
Kind of experiment: LanthaScreen TR-FRET Liver X Receptor Coactivator Assay, co-activator recruitment to LXRbeta LBD. The format is biochemical. Put shortly:
(§1)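 Compound-induced coactivator recruitment by the GST-fused ligand binding domain, detected as TR-FRET between Tb-labelled anti-GST antibody and fluorescein-tagged coactivator peptide after room-temperature incubation. IP and Emax expressed versus T0901317 as reference agonist.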
For orientation: TR-FRET usually uses a lanthanide donor and a delayed reading to cut background.

Experiment [2] deals with T2, glutathione-S-transferase (GST) tagged LXRalpha LBD (ligand binding domain) (Homo sapiens, UniProt Q13133).
T2 construct: purchased Invitrogen pv4655
T2 sequence (Q13133 209-447 limits assumed): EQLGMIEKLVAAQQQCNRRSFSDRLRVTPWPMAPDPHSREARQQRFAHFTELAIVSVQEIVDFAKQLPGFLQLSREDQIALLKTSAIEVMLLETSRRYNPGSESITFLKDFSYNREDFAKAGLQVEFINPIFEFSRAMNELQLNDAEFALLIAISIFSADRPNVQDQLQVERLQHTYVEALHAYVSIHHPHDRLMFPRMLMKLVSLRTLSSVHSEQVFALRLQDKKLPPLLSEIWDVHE
Kind of experiment: LanthaScreen TR-FRET Liver X Receptor Coactivator Assay, co-activator recruitment to LXRalpha LBD. The conditions noted are these: for EC50 / LXR alpha IP (nM): potency (Inflection Point, IP), co-activator recruitment to LXRalpha LBD, in relation to T0901317. The format is biochemical. In outline: as §1

[3] abbreviates: efficacy at max dose, in relation to reference dual agonist T0901317, read-out: LXR beta Activity @ max dose (%).
Setting [4] is: potency (Inflection Point, IP), co-activator recruitment to LXRbeta LBD, in relation to T0901317, read-out: LXR beta IP.
Where [5] appears, read: efficacy at max dose, in relation to reference dual agonist T0901317, read-out: LXR alpha Activity @ max dose (%).
[6] abbreviates: efficacy at max dose, in relation to reference dual agonist T0901317.
[7] abbreviates: LXR beta IP (nM), potency (Inflection Point, IP), co-activator recruitment to LXRbeta LBD, in relation to T0901317.
Setting [8] is: read-out: LXR beta Activity @ max dose (%).
Setting [9] is: read-out: LXR alpha Activity @ max dose (%).

The text below walks through data of patent publication US10752587B2, “Homobispiperidinyl derivatives as liver X receptor beta agonists, compositions and their use” (Merck Sharp & Dohme Corp., priority 2015, dated 2020).

Where two headings read alike, the source gives them in different places.

With `CNC(=O)c1ccc(N2CCC(CC3CCN(C(=O)[C@](O)(c4cccc(Cl)c4)C(F)(F)F)CC3)CC2)nc1Cl` [Example 7-147, 2-chloro-6-[4-({1-[(2R)-2-(3-chlorophenyl)-3,3,3-trifluoro-2-hydroxypropanoyl]piperidin-4-yl}methyl)piperidin-1-yl]-N-methylpyridine-3-carboxamide], the Emax in experiment [1] (setting [3]) came out at 100%; in experiment [2] (setting [5]), 63%. Also, the EC50 amounted to 4 nM in experiment [1] (setting [4]) and 51 nM in experiment [2] (read-out: LXR alpha IP).
For the compound `CN(C)C(=O)c1ccc(N2CCC(CC3(C)CCN(C(=O)[C@](O)(c4cc(Cl)cc(Cl)c4)C(F)(F)F)CC3)CC2)cc1Cl` [Example 2-53, 2-chloro-4-[4-({1-[(2R)-2-(3,5-dichloro-phenyl)-3,3,3-trifluoro-2-hydroxy-propanoyl]-4-methylpiperidin-4-yl}methyl)piperidin-1-yl]-N,N-dimethyl-benzamide], the Emax in experiment [1] (setting [3]) came to 50%; in experiment [2] (setting [5]), 0%. Also, the EC50 in experiment [1] (setting [4]) came out at 5 nM. For the same compound, the “LXR alpha IP (nM)” value in experiment [2] is recorded as “NO IP”.
As to `CN(C)C(=O)c1ccc(N2CCC(CC3CCN(S(=O)(=O)c4cc(F)cc(F)c4)CC3)CC2)cc1Cl` [Example 13-6, 2-chloro-4-[4-({1-[(3,5-difluorophenyl)-sulfonyl]piperidin-4-yl}methyl)piperidin-1-yl]-N,N-dimethylbenzamide], in experiment [1] (co-activator recruitment to GST-LXRbeta LBD, TR-FRET, read-out: LXR beta IP (Inflection Point, potency)), the EC50 turned out to be 75 nM. For the same compound, the Emax in experiment [1] (efficacy in relation to reference dual agonist T0901317, read-out: LXR beta Activity @ max dose) was 41%; in experiment [2] (efficacy in relation to reference dual agonist T0901317, read-out: LXR alpha Activity @ max dose), 12%. In addition, the “LXR alpha IP (Inflection Point, potency)” value in experiment [2] (co-activator recruitment to GST-LXRalpha LBD, TR-FRET) is on record as “NO IP”.
Regarding `CNC(=O)c1ccc(N2CCC(CC3CCN(C(=O)[C@](O)(c4cccc(OC)c4)C(F)(F)F)CC3)CC2)cc1Cl` [Example 7-33, 2-chloro-N-methyl-4-[4-({1-[(2R)-3,3,3-trifluoro-2-hydroxy-2-(3-methoxyphenyl)propanoyl]piperidin-4-yl}methyl)piperidin-1-yl]benzamide], the Emax was found to be 60% in experiment [1] (setting [3]) and 12% in experiment [2] (setting [5]). Further, the EC50 in experiment [1] (setting [4]) worked out at 10 nM. Further, the “LXR alpha IP (nM)” value in experiment [2] was “NO IP”.
With `COc1cccc([C@@](O)(C(=O)N2CCC(CC3CCN(c4ccc(C(=O)N(C)C)c(C)n4)CC3)CC2)C(F)(F)F)c1` [Example 7-8, N,N,2-trimethhyl-6-[4-({1-[(2R)-3,3,3-trifluoro-2-hydroxy-2-(3-methoxyphenyl)propanoyl]piperidin-4-yl}methyl)piperidin-1-yl]pyridine-3-carboxamide], the “LXR beta Activity @ max dose (%)” value in experiment [1] (setting [6]) was 53%. Besides, the EC50 in experiment [1] (setting [4]) was found to be 12 nM. In experiment [2] (setting [6]), the “LXR alpha Activity @ max dose (%)” value is given as 6%.
As for `COc1cccc(C(O)(C(=O)N2CCC(CC3CCN(c4ccc(C(=O)N(C)C)c(Cl)n4)CC3)CC2)C(F)(F)C(F)(F)F)c1` (stereo not drawn) [Example 7-58, 2-chloro-N,N-dimethyl-6-[4-({1-[3,3,4,4,4-pentafluoro-2-hydroxy-2-(3-methoxyphenyl)butanoyl]piperidin-4-yl}methyl)piperidin-1-yl]pyridine-3-carboxamide], the Emax in experiment [1] (setting [3]) was 80%; in experiment [2] (setting [5]), 19%. Moreover, the EC50 in experiment [1] (setting [4]) stood at 11 nM; in experiment [2] (read-out: LXR alpha IP), 274 nM.
Turning to `CCOc1cccc([C@@](O)(C(=O)N2CCC(C)(CC3CCN(c4ccc(C(=O)N(C)C)c(Cl)n4)CC3)CC2)C(F)(F)F)c1` [Example 7-50, 2-chloro-6-[4-({1-[(2R)-2-(3-ethoxyphenyl)-3,3,3-trifluoro-2-hydroxypropanoyl]-4-methylpiperidin-4-yl}methyl)piperidin-1-yl]-N,N-dimethylpyridine-3-carboxamide], the Emax in experiment [1] (setting [3]) is 47%; in experiment [2] (setting [5]) it was 6%. Besides, the EC50 in experiment [1] (setting [4]) was found to be 10 nM. The “LXR alpha IP (nM)” value in experiment [2] is “NO IP”.
As to `CN(C)C(=O)c1ccc(N2CCC(CC3CCN(C(=O)C(O)(c4ccccc4)C4CCCCC4)CC3)CC2)nc1Cl` (stereo not drawn) [Example 7-100, 2-chloro-6-[4-({1-[cyclohexyl(hydroxy)phenylacetyl]piperidin-4-yl}methyl)piperidin-1-yl]-N,N-dimethylpyridine-3-carboxamide], the EC50 in experiment [1] (setting [7]) was 200 nM. Moreover, the Emax in experiment [1] (setting [8]) was determined as 37%; in experiment [2] (setting [9]) it was 4%. The “LXR alpha IP (nM)” value in experiment [2] is listed as “NO IP”.
On to `CN(C)C(=O)c1ccc(N2CCC(CC3CCN(C(=O)C(O)(c4cccs4)C(F)(F)F)CC3)CC2)cc1Cl` (stereo not drawn) [Example 2-37, 2-chloro-N,N-dimethyl-4-(4-{[1-(3,3,3-trifluoro-2-hydroxy-2-thiophen-2-ylpropanoyl)piperidin-4-yl]methyl}piperidin-1-yl)benzamide], for which the Emax in experiment [1] (setting [3]) came to 73%; in experiment [2] (setting [5]) it was 33%. In addition, the figures for the EC50 in experiment [1] (setting [4]) and in experiment [2] (read-out: LXR alpha IP) were 29 nM and 620 nM, respectively.
With `CN(C)C(=O)c1ccc(N2CCC(CC3CCN(C(=O)C(O)(c4ccccc4)C4CCC4)CC3)CC2)nc1Cl` (stereo not drawn) [Example 7-97, 2-chloro-6-[4-({1-[cyclobutyl(hydroxy)phenylacetyl]piperidin-4-yl}methyl)piperidin-1-yl]-N,N-dimethylpyridine-3-carboxamide], the figures for the EC50 in experiment [1] (setting [7]) and in experiment [2] (LXR alpha IP (nM)) were 40 nM and 1180 nM, respectively. Besides, the results for the Emax in experiment [1] (setting [8]) and in experiment [2] (setting [9]) were 98% and 38%, respectively.
For `CN(C)C(=O)c1ccc(N2CCC(CC3CCN(C(=O)[C@](O)(c4cccc(C(F)(F)F)c4)C(F)(F)F)CC3)CC2)nc1Cl` [Example 7-87, 2-chloro-N,N-dimethyl-6-{4-[(1-{(2R)-3,3,3-trifluoro-2-hydroxy-2-[3-(trifluoromethyl)phenyl]propanoyl}piperidin-4-yl)methyl]piperidin-1-yl}pyridine-3-carboxamide], the Emax in experiment [1] (setting [3]) turned out to be 69%; in experiment [2] (setting [5]), 23%. Also, the EC50 in experiment [1] (setting [4]) is 7 nM; in experiment [2] (read-out: LXR alpha IP), 252 nM.
Regarding `CCOc1cccc(C(O)(C(=O)N2CCC(CC3CCN(c4ccc(C(=O)N(C)C)c(Cl)n4)CC3)CC2)C(F)(F)F)c1` (stereo not drawn) [Example 7-77, 2-chloro-6-[4-({1-[2-(3-ethoxyphenyl)-3,3,3-trifluoro-2-hydroxypropanoyl]piperidin-4-yl}methyl)piperidin-1-yl]-N,N-dimethylpyridine-3-carboxamide], the figures for the Emax in experiment [1] (setting [3]) and in experiment [2] (setting [5]) were 53% and 6%, respectively. In addition, the EC50 in experiment [1] (setting [4]) was determined as 10 nM. Moreover, in experiment [2], the “LXR alpha IP (nM)” value is “NO IP”.
The corresponding values for `COc1cccc([C@@](O)(C(=O)N2CCC(CC3CCN(c4ccc(C(=O)N(C)C)c(Cl)c4)CC3)CC2)C(F)F)c1` [Example 2-106, 2-chloro-4-[4-({1-[(2R)-3,3-difluoro-2-hydroxy-2-(3-methoxy-phenyl)propanoyl]piperidin-4-yl}methyl)piperidin-1-yl]-N,N-dimethyl-benzamide] are 19%, 0%, 10 nM and “NO IP”.
In the case of `Cc1ccsc1C(O)(C(=O)N1CCC(CC2CCN(c3ccc(C(=O)N(C)C)c(Cl)c3)CC2)CC1)C(F)(F)F` (stereo not drawn) [Example 2-38, 2-chloro-N,N-dimethyl-4-[4-({1-[3,3,3-trifluoro-2-hydroxy-2-(3-methyl-thiophen-2-yl)propanoyl]piperidin-4-yl}methyl)piperidin-1-yl]benzamide], the Emax in experiment [1] (setting [3]) was found to be 67%; in experiment [2] (setting [5]), 15%. Further, the EC50 in experiment [1] (setting [4]) amounted to 49 nM; in experiment [2] (read-out: LXR alpha IP), 575 nM.
Turning to `COc1cccc([C@@](O)(C(=O)N2CCC(CC3(C)CCN(c4ccc(C(=O)N(C)C)c(C)n4)CC3)CC2)C(F)(F)F)c1` [Example 7-16, N,N,2-trimethyl-6-[4-methyl-4-({1-[(2R)-3,3,3-trifluoro-2-hydroxy-2-(3-methoxyphenyl)propanoyl]piperidin-4-yl}methyl)piperidin-1-yl]pyridine-3-carboxamide], the Emax in experiment [1] (setting [3]) was found to be 65%; in experiment [2] (setting [5]) it was 8%. Moreover, the EC50 in experiment [1] (setting [4]) is 66 nM. For the same compound, the “LXR alpha IP (nM)” value in experiment [2] is reported as “NO IP”.
For `CN(C)C(=O)c1ccc(N2CCC(CC3CCN(C(=O)C4(c5ccccc5)CCCC4)CC3)CC2)cc1Cl` [Example 2-10, 2-chloro-N,N-dimethyl-4-[4-({1-[(1-phenyl-cyclopentyl)carbonyl]piperidin-4-yl}methyl)piperidin-1-yl] benzamide], the Emax in experiment [1] (setting [3]) is 60%; in experiment [2] (setting [5]), 0%. The EC50 in experiment [1] (setting [4]) is 50 nM. Also, the “LXR alpha IP (nM)” value in experiment [2] is recorded as “NO IP”.
